According to US20080286147A1, “Apparatus and Method for Decontamination” (GOVERNMENT OF THE U.S.A. OF AMERICA AS REPRESENTED, priority 2004, published 2008):
Where “and” joins values, the source holds several entries; their conditions need not be identical. Equal entries are not always repeated.

Legend:
Format in all cases: cell-based
[1] = tested on: B. subtilis var. niger spores; assay: Decontamination of a mock BSC containing spore test strips with chlorine dioxide gas; strips cultured in tryptic soy broth
Source text: Test strips contaminated with 2.4×10^4 B. subtilis var. niger spores (Castle Biospore Biological Indicators, Castle, Inc., Rochester, N.Y.) were placed inside a mock BSC (FIG. 7) in various positions. The mock BSC was generated such that it was sealed from the outside environment, and included two openings to permit influx and efflux of air and other agents through the mock BSC.
After sealing the mock BSC, the sealed mock BSC was humidified to 74-95% relative humidity using the following methods. Referring to FIGS. 2, 3 and 7, water was added to a humidifier/scrubber 22, and a blower 24 attached to the humidifier/scrubber 22 to allow air to pass by the water to generate humidified air. A hose 30 coming from the humidifier/scrubber which emitted humidified air was introduced into one of the openings 402 in the mock BSC 400. A hose 36 coming out of the mock BSC was attached to the blower 22, thereby providing a closed-loop which circulated humidified air from the humidifier/scrubber 22 into the mock BSC 400, out of the mock BSC 400 and back to the humidifier/scrubber 22, and so on. A hygrometer 404 in the mock BSC was used to monitor the relative humidity in the mock BSC.
During the humidification, chlorine dioxide gas was introduced into the mock BSC as follows. A tank 12 containing a 4% chlorine/96% nitrogen gas mixture was turned on to permit the flow of gas to a CDG Saf-T-Chlor™ chlorine dioxide gas generator 14. This generator includes a sodium chlorite cartridge in fluid communication with the 4% Cl/96% N2 gas mixture. The resulting chlorine dioxide gas was allowed to flow into the hose 30 exiting the humidifier/scrubber (containing the humidified air), and was allowed to enter the mock BSC along with the humidified air. A chlorine dioxide monitor in the mock BSC allowed for a determination of the amount of chloride dioxide in the mock BSC. In some instances, the air circulation was increased by including a fan 406 in the mock BSC.
Following exposure to chlorine dioxide, the tank 12 containing a 4% Cl/96% N2 gas mixture was turned off, to stop the flow and production of chlorine dioxide gas. To neutralize the chlorine dioxide gas, the following methods were used. A neutralizing solution that included 10% NaOH and 10% sodium thiosulfate hydrate (in water) was introduced into the humidifier/scrubber 22. Air from the mock BSC containing chlorine dioxide gas was circulated through the closed system described above, such that when the air containing chloride dioxide gas passed through the humidifier/scrubber 22, it was at least partially neutralized. […]

[2] = tested on: B. subtilis var. niger spores; assay: Decontamination of a BSC containing spore test strips using 2500 ppm ClO2 for 60 min; conditions: 70-80% relative humidity
Source text: (§1) Test strips described in Example 1 were placed inside a BSC (FIG. 8) in various positions. Referring to FIGS. 2, 3 and 8, the opening in the front of the BSC 500 was sealed using a polyethylene sheet 502 or plastic sheeting and duct tape. An opening 504 was made in the plastic or polyethylene 502 to permit influx of air and other agents through the sealed BSC 500. Gas was evacuated from the sealed BSC using the port 506 on the top of the sealed BSC through fluid flow path 36.
After sealing the BSC, the sealed area was humidified to 70-80% relative humidity as described in Examples 1 and 2. During the humidification, chlorine dioxide gas was introduced into the BSC as described in Example 1. The BSC was exposed to 2500 ppm chlorine dioxide gas for one hour. The BSC circulates 15 s/5 min.
Once the hour was up, the chlorine dioxide gas was neutralized as described above. The test strips were cultured as described in Example 1.

[3] = tested on: B. subtilis var. niger spores; assay: Decontamination of a BSC containing spore test strips using 4000 ppm ClO2 for 60 min; conditions: 75% relative humidity
Source text: as §1
After sealing the BSC, the sealed area was humidified to 75% relative humidity as described in Example 1. Briefly, water was added to a humidifier/scrubber 22, and a blower 24 attached to the humidifier/scrubber 22 to allow air to pass by the water to generate humidified air. A hose 30 coming from the humidifier/scrubber which emitted humidified air was introduced into an opening 504 in the sealed BSC 500. A hose 36 coming out of the BSC was attached to the blower 22, thereby providing a closed-loop which circulated humidified air from the humidifier/scrubber 22 into the sealed BSC 500, out of the sealed BSC 500 and back to the humidifier/scrubber 22, and so on.
During the humidification, chlorine dioxide gas was introduced into the BSC as described in Example 1. The BSC was exposed to 4000 ppm chlorine dioxide gas for one hour. […]

[O][Cl+][O-] [ClO2, Chlorine dioxide]
Kill (number of test strips negative for spore growth) ([1]; Run A: 1500 ppm ClO2, exposure 90 min, relative humidity 95%, 69 °F, strips with 2.4×10^4 spores): 16/16
Kill (number of test strips negative for spore growth) ([1]; Run B: 1500 ppm ClO2, exposure 90 min, relative humidity 85%, 69 °F): 16/16
Kill (number of test strips negative for spore growth) ([1]; Run C: 2200 ppm ClO2, exposure 60 min, relative humidity 74%, 69 °F): 17/17
Kill (number of test strips negative for spore growth) ([1]; Run D: 2000 ppm ClO2, exposure 60 min, relative humidity 75%, 68 °F): 17/17
Kill (number of test strips negative for spore growth) ([2]; 2500 ppm ClO2 for 60 min, Runs A-D (70-74 °F)): 24/24 and 23/23
spore kill on test strips (in words) ([2]; 2500 ppm chlorine dioxide gas for one hour): all spores were killed
Kill (number of test strips negative for spore growth) ([3]; 4000 ppm ClO2 for 60 min, Runs A-E (76.0-86.0 °F)): 24/24 and 23/24
spore kill on test strips (in words) ([3]; 4000 ppm chlorine dioxide gas for one hour): all spores were killed except on one test strip
